Source: patent publication US11690810B2, “Combination treatment of bacterial infection” (The Chinese University of Hong Kong, priority 2018, dated 2023)
Converted amounts (≈) assume the structure as drawn. “And” between values parts separate entries of the source, which are not always exact repeats. Identical values can stand only once. Like-named read-outs stand apart in the source and are kept apart here.

Assays:
CA MRSA W101 = assay: MIC and checkerboard (FIC) assay; conditions: for FIC / MIC combine: ECG with Kur
[1] = tested on: bacterial aggregation of MRSA JE-2; assay: Aggregation assay of MRSA JE-2; format: cell-based, Staphylococcus aureus; conditions: JE-2; varying concentrations
Solubility = conditions: saline or isotonic
[2] = tested on: S. aureus SA-APH3′ (APH3), resistant to kanamycin; assay: MIC and checkerboard (FIC) assay
[3] = tested on: internalization of MRSA strain JE-2 by HaCat keratinocytes; assay: Internalization of S. aureus by HaCaT keratinocytes; format: cell-based, Staphylococcus aureus
[4] = tested on: clinical fusidic acid resistant MRSA strain 96591; assay: MIC and checkerboard (FIC) assay; format: cell-based, Staphylococcus aureus; conditions: for FIC / MIC combine: 96591
[5] = tested on: panel of laboratory MRSA strains; assay: MIC and combination tests, panel of laboratory strains
[6] = tested on: S. aureus ATCC25923 (methicillin sensitive); conditions: ATCC 25293; ECG with Kur
HA MRSA W234 = assay: MIC and checkerboard (FIC) assay; conditions: for FIC / MIC combine: ECG with Kur
HA MRSA W231 = conditions: ECG+Kur+Van
[7] = tested on: clinical fusidic acid resistant MRSA strain 82356; assay: MIC and checkerboard (FIC) assay; format: cell-based, Staphylococcus aureus; conditions: for FIC / MIC combine: 82356
CA MRSA W48 = assay: MIC and checkerboard (FIC) assay; conditions: for FIC / MIC combine / MIC alone: W48
[8] = tested on: Human Mammary Epithelial Cell (HMEC); assay: XTT cytotoxicity testing; format: cell-based; conditions: 2-64 μg/ml, vs drug free control
Method: The plates were maintained in a 37° C. incubator.

CA MRSA W45 = assay: MIC and checkerboard (FIC) assay; conditions: for FIC / MIC combine / MIC alone: W45
CA MRSA W106 = assay: MIC and checkerboard (FIC) assay; conditions: for FIC / MIC combine: ECG with Kur
[9] = tested on: S. aureus SA-1199B (NorA efflux pump overexpressed); assay: MIC and checkerboard (FIC) assay; conditions: for FIC / MIC combine: 1199B; for MIC: read-out: MIC alone, 1199B
[10] = tested on: adherence of MRSA strain JE-2 to HaCat keratinocytes; assay: Bacterial adherence to HaCaT keratinocytes; format: cell-based, Staphylococcus aureus
[11] = tested on: S. aureus SA-RN4220-pUL5054 (RN4220); assay: MIC and checkerboard (FIC) assay
[12] = tested on: cytokines production of human macrophages stimulated with PGN or SEB; format: cell-based
CA MRSA W46 = assay: MIC and checkerboard (FIC) assay; conditions: for FIC / MIC combine / MIC alone: W46
[13] = tested on: adherence of MRSA strain JE-2 to fibrinogen; assay: Fibrinogen-binding adherence assay (crystal violet); format: cell-based, Staphylococcus aureus; conditions: varying concentrations
[14] = tested on: cytokines production of human PBMC stimulated with PGN or SEB; format: cell-based
[15] = tested on: Human Umbilical Vein Endothelial Cells (HUVEC); assay: XTT cytotoxicity testing; conditions: 2-64 μg/ml, vs drug free control
[16] = tested on: Panton-Valentine leukocidin positive CA-MRSA strain ST30; format: in vivo, Balb/c mice; conditions: ST30; used alone at 60 and 120 mg/kg
[17] = tested on: NorA overexpressed S. aureus; conditions: ECG at 20 μg/ml; norfloxacin-resistant S. aureus overexpressing NorA (16); cited from earlier work
[18] = Staphylococcus aureus, MRSA, read-out: MIC alone
[19] = Staphylococcus aureus, read-out: MIC 99.9
[20] = Staphylococcus aureus, read-out: MIC alone

O=C(O[C@@H]1Cc2c(O)cc(O)cc2O[C@@H]1c1ccc(O)c(O)c1)c1cc(O)c(O)c(O)c1 [ECG, epicatechin gallate]
MIC (CA MRSA W101; [18]): 512 µg/mL
FIC (CA MRSA W101; W101): 0.002
MIC combine (CA MRSA W101; W101): 1 µg/mL
bacterial aggregation [1]: No significant reduction
solubility (Solubility): 20 mg/mL (≈ 45.2 mM)
FIC ([2]; APH3, Kuraridin with ECG): 0.0009
MIC combine ([2]; APH3, Kuraridin with ECG): 0.5 µg/mL
MIC90 ([2]; Staphylococcus aureus): 4 µg/mL
MIC99 [2, 19]: > 512 µg/mL
MIC [2, 20]: 512 µg/mL
percentage of internalized bacteria by HaCaT cells ([3]; ECG 4 μg/ml): 62.2±2.7%
percentage of internalized bacteria by HaCaT cells ([3]; ECG 8 μg/ml): 62.8±10.5%
percentage of internalized bacteria by HaCaT cells ([3]; ECG 16 μg/ml): 53.7±6.3%
percentage of internalized bacteria by HaCaT cells ([3]; ECG 32 μg/ml): 42.2±8.9%
percentage of internalized bacteria by HaCaT cells ([3]; ECG 64 μg/ml): 34.7±4.5%
FIC ([4]; ECG+Kur+Fus): 0.002
MIC combine ([4]; ECG+Kur+Fus): 0.25 µg/mL
FIC ([4]; ECG+Kur, no Fus): 0.003
MIC combine ([4]; ECG+Kur, no Fus): 16 µg/mL
MIC [4, 18]: 512 µg/mL
MIC90 ([5]; Staphylococcus aureus, MRSA): 4 to 16 µg/mL
concentration for 99.9% inhibition ([5]; panel of laboratory strains): > 512 µg/mL
FIC [6]: 0.008
MIC combine [6]: 4 µg/mL
MIC (HA MRSA W234; [18]): 512 µg/mL
FIC (HA MRSA W234; W234): 0.002
MIC combine (HA MRSA W234; W234): 1 µg/mL
FIC (HA MRSA W231): 0.0004
MIC combine (HA MRSA W231): 0.25 µg/mL
FIC ([7]; ECG+Kur+Fus): 0.008
MIC combine ([7]; ECG+Kur+Fus): 0.25 µg/mL
FIC ([7]; ECG+Kur, no Fus): 0.016
MIC combine ([7]; ECG+Kur, no Fus): 8 µg/mL
MIC [7, 18]: 512 µg/mL
MIC (CA MRSA W48; [18]): 512 µg/mL
FIC (CA MRSA W48; ECG with Kur): 0.002
MIC combine (CA MRSA W48; ECG with Kur): 1 µg/mL
FIC (CA MRSA W48; ECG+Kur+Van): 0.002
MIC combine (CA MRSA W48; ECG+Kur+Van): 1 µg/mL
MIC alone (CA MRSA W48; Table 5): 512 µg/mL
Cellular toxicity (XTT assay) [8]: not toxic
MIC (CA MRSA W45; [18]): 512 µg/mL
FIC (CA MRSA W45; ECG with Kur): 0.002
MIC combine (CA MRSA W45; ECG with Kur): 1 µg/mL
FIC (CA MRSA W45; ECG+Kur+Van): 0.0004
MIC combine (CA MRSA W45; ECG+Kur+Van): 0.25 µg/mL
MIC alone (CA MRSA W45; Table 5): 512 µg/mL
MIC (CA MRSA W106; [18]): 512 µg/mL
FIC (CA MRSA W106; W106): 0.002
MIC combine (CA MRSA W106; W106): 1 µg/mL
FIC ([9]; Baicalein with ECG): 0.25
MIC combine ([9]; Baicalein with ECG): 8 µg/mL
FIC ([9]; Kuraridin with ECG): 0.06
MIC combine ([9]; Kuraridin with ECG): 32 µg/mL
MIC90 ([9]; Staphylococcus aureus): 8 µg/mL
MIC99 [9, 19]: > 512 µg/mL
MIC ([9]; Staphylococcus aureus, Baicalein and ECG section): 32 µg/mL
MIC ([9]; Staphylococcus aureus, Kuraridin and ECG section): 512 µg/mL
decrease in the adherence of the WT strain to HaCaT cells ([10]; 64 μg/ml of ECG): 1.4 fold
percentage of adherence of the bacteria to HaCaT cells ([10]; ECG 4 μg/ml): 73.0±4.1%
percentage of adherence of the bacteria to HaCaT cells ([10]; ECG 8 μg/ml): 75.4±11.0%
percentage of adherence of the bacteria to HaCaT cells ([10]; ECG 16 μg/ml): 76.4±7.0%
percentage of adherence of the bacteria to HaCaT cells ([10]; ECG 32 μg/ml): 58.8±8.5%
percentage of adherence of the bacteria to HaCaT cells ([10]; ECG 64 μg/ml): 52±6.5%
FIC ([11]; RN4220, Kuraridin with ECG): 0.01
MIC combine ([11]; RN4220, Kuraridin with ECG): 8 µg/mL
MIC90 ([11]; Staphylococcus aureus): 8 µg/mL
MIC99 [11, 19]: > 512 µg/mL
MIC [11, 20]: 512 µg/mL
IL-12 production [12]: could suppress only IL-12
MIC (CA MRSA W46; [18]): 512 µg/mL
FIC (CA MRSA W46; ECG with Kur): 0.015
MIC combine (CA MRSA W46; ECG with Kur): 8 µg/mL
FIC (CA MRSA W46; ECG+Kur+Van): 0.002
MIC combine (CA MRSA W46; ECG+Kur+Van): 1 µg/mL
MIC alone (CA MRSA W46; Table 5): 512 µg/mL
fibrinogen-binding adherence [13]: dose-dependent reduction of adherence
IL-10 and IL-12 production [14]: mildly suppressed
TNF-α production [14]: no significant effects
Cellular toxicity (XTT assay) [15]: not toxic
log CFU counts and survival rates [16]: could not reduce the log CFU counts or improve the survival rates
potentiation of the activity of norfloxacin [17]: four-fold potentiation

C=C(C)[C@H](CC=C(C)C)Cc1c(O)cc(OC)c(C(=O)/C=C/c2ccc(O)cc2O)c1O [Kuraridin]
MIC alone (CA MRSA W101; W101): 8 µg/mL
FIC (CA MRSA W101; W101): 0.5
MIC combine (CA MRSA W101; W101): 4 µg/mL
MIC alone ([4]; 96591 (fusidic acid resistant), listed as Kur): 4 µg/mL and 8 µg/mL
FIC ([4]; ECG+Kur+Fus): 0.5
MIC combine ([4]; ECG+Kur+Fus): 2 µg/mL
FIC ([4]; ECG+Kur, no Fus): 0.5
MIC combine ([4]; ECG+Kur, no Fus): 4 µg/mL
MIC alone (HA MRSA W234; W234): 8 µg/mL
FIC (HA MRSA W234; W234): 0.5
MIC combine (HA MRSA W234; W234): 4 µg/mL
MIC alone ([7]; 82356 (fusidic acid resistant)): 8 µg/mL
FIC ([7]; ECG+Kur+Fus): 0.25
MIC combine ([7]; ECG+Kur+Fus): 4 µg/mL
FIC ([7]; ECG+Kur, no Fus): 0.5
MIC combine ([7]; ECG+Kur, no Fus): 4 µg/mL
MIC alone (CA MRSA W48): 8 µg/mL
FIC (CA MRSA W48; ECG with Kur): 0.5
MIC combine (CA MRSA W48; ECG with Kur): 4 µg/mL
FIC (CA MRSA W48; ECG+Kur+Van): 0.25
MIC combine (CA MRSA W48; ECG+Kur+Van): 2 µg/mL
MIC alone (CA MRSA W48; Table 5): 8 µg/mL
MIC alone (CA MRSA W45): 8 µg/mL
FIC (CA MRSA W45; ECG with Kur): 0.5
MIC combine (CA MRSA W45; ECG with Kur): 4 µg/mL
FIC (CA MRSA W45; ECG+Kur+Van): 0.25
MIC combine (CA MRSA W45; ECG+Kur+Van): 2 µg/mL
MIC alone (CA MRSA W45; Table 5): 8 µg/mL
MIC alone (CA MRSA W106; W106): 8 µg/mL
FIC (CA MRSA W106; W106): 0.25
MIC combine (CA MRSA W106; W106): 2 µg/mL
MIC alone (CA MRSA W46): 8 µg/mL
FIC (CA MRSA W46; ECG with Kur): 0.5
MIC combine (CA MRSA W46; ECG with Kur): 4 µg/mL
FIC (CA MRSA W46; ECG+Kur+Van): 0.5
MIC combine (CA MRSA W46; ECG+Kur+Van): 4 µg/mL
MIC alone (CA MRSA W46; Table 5): 8 µg/mL
